The text below walks through data of patent US20230149360A1, “ALPHA-2 ADRENERGIC RECEPTOR AGONISTS FOR THE PREVENTION AND/OR THE TREATMENT OF SPLEEN DISORDERS” (UNIVERSITÉ CATHOLIQUE DE LOUVAIN, priority 2020, published 2023).

The subject of assay [1] is mice transplanted with JAK2V617F mutated bone marrow. As to the kind of experiment: Splenomegaly induced by myelofibrosis (JAK2V617F mutated bone marrow transplantation). It counts as in vivo. The note with it: for spleen weight (myelofibrosis-induced splenomegaly), prevention: treatment started one week after bone marrow transplantation, 5 mg/kg daily for three weeks; for spleen weight (myelofibrosis-induced splenomegaly), treatment: treatment started three weeks after bone marrow transplantation, splenomegaly already formed, 5 mg/kg daily for two weeks.

A further assay concerns C57BL/6 J wild-type mice. To be noted: romiplostim 1 mg/kg s.c. days 1, 8, 15, 5 mg/kg i.p. daily for two weeks from day 8. The protocol:
(§1) 8-week female C57BL/6 J wild-type and Adra2a KO mice were administered saline or 1 mg/kg of romiplostim by a subcutaneous injection into the neck skin on days 1, 8 and 15. Clonidine or guanabenz were administrated i.p. at a dose of 5 mg/kg daily for two weeks starting from day 8. Mice were dissected on day 22 and spleen weight were measured. After killing, peripheral blood was drawn by cardiac puncture, the platelet concentration was measured by Cell Counter Analyzer MS9-5V.

The next assay deals with Adra2a KO mice. The note with it: romiplostim 1 mg/kg s.c. days 1, 8, 15, 5 mg/kg i.p. daily for two weeks from day 8. The procedure:
as §1

Another assay concerns TiRP tumor bearing mice. Nature of the assay: Tumor-induced splenomegaly in TiRP tumor bearing mice (spleen weight). Format: in vivo. The note with it: 5 mg/kg i.p. daily from tumor size around 500 mm^3 until sacrifice. The source says:
TiRP mice have been created by crossing Ink4a/Arf^flox/flox mice with mice carrying a transgenic construct controlled by the tyrosinase promoter and driving the expression of H-Ras^12V and Trap1a which encodes a MAGE-type tumor antigen […]; the promoter is separated from the coding region by a stop cassette made of a floxed self-deleting CreER (Huijbers et al., 2006, Cancer Res 66, 3278-3286). Those mice were backcrossed to a B10.D2 background and bred to homozygosity. TCR[…] mice heterozygous for the H-2Ld/[…]-43-specific TCR transgene were kept on the B10.D2;Rag1^-/- background ([…] et al., 2004, J Immunol 172, 5069-5077). DBA/2 mice and C57BL/6J mice were used in tumor transplantation and mice immunization experiments. All mice used in this study were produced under specific pathogen free (SPF) conditions at the animal facility of the de Duve Institute. All the rules concerning animal welfare have been respected according to the 2010/63/EU Directive. All procedures were performed with the approval of the local Animal Ethical Committee, with reference 2015/UCL/MD/15. A fresh solution of […]-Tamoxifen was prepared by dissolving […]-Tamoxifen ([…]®) in 100% ethanol and mineral oil (ratio 1:9) followed by 30 min sonication, and injected subcutaneously (2 mg/200 μL per mouse) in the neck area of gender-matched 7 weeks old TiRP mice. Tumor appearance was monitored daily and tumors were measured three times/week. Tumor volume (in mm^3) was calculated by the following formula: Volume=width^2×length/2. C57BL/6 mice were injected subcutaneously with 1 million B16F1 or B16F10 melanoma cells at an age between 6 to 8 weeks. The mice received daily injections of guanabenz (5 mg/kg, i.p.) or PBS when the tumor size was around 100 mm^3. Mice were sacrificed when the tumor in control group reached 1,000 mm^3. Spleen were isolated and weighted. […] TiRP tumor bearing mice received daily injections of clonidine (5 mg/kg, i.p.), romifidine (5 mg/kg, i.p.) or PBS when the tumor size was around 500 mm^3. […] Spleen were isolated and spleen weight was measured with an analytical balance.

Assay [2] relates to BALB/c mice bearing CT26 colon carcinomas. Nature of the assay: Splenomegaly in mice bearing CT26 colon carcinomas, agonist/antagonist evaluation. The note with it: each drug 5 mg/kg i.p. daily from tumor size around 50 mm^3. It counts as in vivo. The procedure: B16F1, B16F10 melanoma cells, and CT26 colon carcinoma cells were cultured in IMDM medium supplemented with 10% Fetal bovine serum (FBS). […] For evaluation of phentolamine on the effect of clonidine and guanabenz, the mice were randomized into different groups when tumors size arrived around 50 mm^3 and received daily injections of guanabenz (5 mg/kg, i.p.), phentolamine (5 mg/kg, i.p.), propranolol (5 mg/kg, i.p.), a mix of guanabenz (5 mg/kg, i.p.) and phentolamin (5 mg/kg, i.p.), clonidine (5 mg/kg, i.p.), a mix of clonidine (5 mg/kg, i.p.) and phentolamin (5 mg/kg, i.p.), a mix of clonidine (5 mg/kg, i.p.) and propranolol (5 mg/kg, i.p.) or vehicle control. Tumor size was measured every 2 days and mice were sacrificed when the tumor in control group reached 1,000 mm^3. Spleen were isolated and spleen weight was measured with an analytical balance. Spleen from mice of same age without tumors were used as controls.

In a further assay the test system is TiRP-tumor bearing mice. To be noted: TiRP-tumor bearing mice with ACT of 10 million P1A-specific CD8+ T cells; each drug 5 mg/kg i.p. daily from tumor size around 500 mm^3.
Assay [3] relates to C56BL/6 Adra2a KO mice implanted with MC38 colon carcinomas. As to the kind of experiment: Tumor-induced splenomegaly, MC38 colon carcinomas in Adra2a KO mice. To be noted: 5 mg/kg i.p. daily from tumor size around 50 mm^3. It counts as in vivo. The procedure:
(§2) C56BL/6 Wildtype or C56BL/6 Adra2a KO mice were implanted with MC38 colon carcinomas and received daily injections of vehicle control, guanabenz or clonidine (5 mg/kg, i.p.) when the tumor size was around 50 mm^3, until the day of sacrifice. Spleen weight were taken at the time of mice dissection.

For assay [4], the system named is C56BL/6 Wildtype mice implanted with MC38 colon carcinomas. Nature of the assay: Tumor-induced splenomegaly, MC38 colon carcinomas in wildtype mice. To be noted: 5 mg/kg i.p. daily from tumor size around 50 mm^3. It counts as in vivo. The protocol: as §2
The subject of assay [5] is flatworm-induced splenomegaly (schistosomiasis). To be noted: cited from earlier work.
Assay [6] deals with patient with obesity-related diseases, such as fatty liver. To be noted: cited from earlier work.
Assay [7] relates to B16F10 tumor-bearing mice. Nature of the assay: Tumor-induced splenomegaly in B16F10 tumor-bearing mice (spleen weight). It counts as in vivo. To be noted: 5 mg/kg i.p. daily from tumor size around 100 mm^3. The procedure:
(§3) B16F1, B16F10 melanoma cells, and CT26 colon carcinoma cells were cultured in IMDM medium supplemented with 10% Fetal bovine serum (FBS). C57BL/6 mice were injected subcutaneously with 1 million B16F1 or B16F10 melanoma cells at an age between 6 to 8 weeks. The mice received daily injections of guanabenz (5 mg/kg, i.p.) or PBS when the tumor size was around 100 mm^3. Mice were sacrificed when the tumor in control group reached 1,000 mm^3. Spleen were isolated and weighted. […] TiRP tumor bearing mice received daily injections of clonidine (5 mg/kg, i.p.), romifidine (5 mg/kg, i.p.) or PBS when the tumor size was around 500 mm^3. Mice were sacrificed when the tumor in control group reached 1,500 mm^3. Spleen were isolated and spleen weight was measured with an analytical balance.

The test system of the next assay is C57BL/6J mice. As to the kind of experiment: Splenomegaly induced by protein-mediated (Ovalbumin) immunization. Format: in vivo. To be noted: 5 mg/kg 2 hours before and daily after immunization, one week. The procedure:
C57BL/6J mice were immunized once by intraperitoneal (i.p.) injection of 200 μg of OVA protein adsorbed onto Alhydrogel adjuvant 2% (Sigma Aldrich®). These mice were administered 100 μg (5 mg/kg) of guanabenz 2 hours before the immunization and daily after the immunization. […] One week after the immunization, mice were sacrificed, the spleen of each mouse was collected, and spleen weight was measured with an analytical balance.

For a further assay, the system named is DBA/2 mice. As to the kind of experiment: Splenomegaly induced by virus-mediated (Chadox_li_P1A prime, MVA_P1A boost) immunization. Format: in vivo. The note with it: 5 mg/kg 2 hours before and daily after immunization, two weeks.
A further assay has as its system B16F1 tumor-bearing mice. Nature of the assay: Tumor-induced splenomegaly in B16F1 tumor-bearing mice (spleen weight). Format: in vivo. To be noted: 5 mg/kg i.p. daily from tumor size around 100 mm^3. The protocol:
as §3

For `Clc1cccc(Cl)c1N=C1NCCN1` [clonidine], the “spleen weight (myelofibrosis-induced splenomegaly), prevention” value in assay [1] is given as “significantly reduced the splenomegaly”. The “spleen weight (myelofibrosis-induced splenomegaly), treatment” value in assay [1] is given as “significantly reduced the splenomegaly”. Moreover, the “spleen weight (romiplostim-induced splenomegaly)” value in the assay on C57BL/6 J wild-type mice is listed as “significantly reduced the splenomegaly”; in the assay with Adra2a KO mice it was “not in Adra2a KO mice”. The figures for the “spleen weight (tumor-induced splenomegaly)” value (in the assay with TiRP tumor bearing mice; in [3]; in assay [4]) were “TiRP tumor-induced splenomegaly is inhibited”, “no inhibition is observed” and “inhibit tumor-induced splenomegaly”, respectively. The “spleen weight / spleen size” value in assay [2] was “reduced the spleen size”; with TiRP-tumor bearing mice it was “reduced spleen size”.
Consider `CN1C[C@H](C(=O)N[C@]2(C)O[C@@]3(O)[C@@H]4CCCN4C(=O)[C@H](Cc4ccccc4)N3C2=O)C=C2c3cccc4[nH]cc(c34)C[C@H]21` [ergotamine], for which, in assay [5], the splenomegaly entry is on record as “reduced flatworm-induced splenomegaly”.
As for `N=C(N)N/N=C/c1c(Cl)cccc1Cl` [guanabenz], the “spleen weight (myelofibrosis-induced splenomegaly), prevention” value in assay [1] is given as “significantly reduced the splenomegaly”. Besides, the “spleen weight (myelofibrosis-induced splenomegaly), treatment” value in assay [1] was “significantly reduced the splenomegaly”. For the same molecule, the “weight of the spleen” value in [6] is “promoting a decrease in the weight of the spleen”. The “spleen weight (tumor-induced splenomegaly)” value with TiRP tumor bearing mice is recorded as “can reverse the tumor-induced splenomegaly”; in assay [3], “no inhibition is observed”; in assay [7] it was “can reverse the tumor-induced splenomegaly”; in [4] it was “inhibit tumor-induced splenomegaly”; in the assay on B16F1 tumor-bearing mice it was “can reverse the tumor-induced splenomegaly”. Also, the “spleen weight / spleen size” value in assay [2] is on record as “reduced the spleen size”. Also, the “spleen weight (immunization-induced splenomegaly)” value in the assay on C57BL/6J mice and in the assay with DBA/2 mice was “inhibits splenomegaly” throughout.
Take `Fc1cccc(Br)c1NC1=NCCN1` [romifidine]: the “spleen weight (tumor-induced splenomegaly)” value with TiRP tumor bearing mice was “TiRP tumor-induced splenomegaly is inhibited”.
